This passage reports IC50 results from patent US9187472B2 (AbbVie Inc., priority 2012, dated 2015).

Some results are limits rather than exact numbers.

The subject of one test is PC3 cells. The test is described as follows: NAMPT Cell Proliferation Assay. The class given is cell-based. Conditions: Homo sapiens, PC-3, 120 h, 5 days incubation, cell viability by Cell Titer Glo. In short, it runs like this: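 IC50 values derive from sigmoidal dose-response fits of percent inhibition of PC3 viability, measured by luminescence after 5 days of compound treatment. Cells (500/well, RPMI containing 10% heat-inactivated FBS) are allowed to attach overnight, and compounds are tested at 10-fold dilutions between 10 μM and 1×10^−5 μM.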

For another test, the target named is NAMPT (Homo sapiens, UniProt P43490). The test is described as follows: TR-FRET Binding Assay of NAMPT with PRPP. Conditions: with 200 μM PRPP and 2.5 mM ATP; 2 nM NAMPT, 2 nM probe, 16 hours equilibration. In short, it runs like this:
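Substrate-containing variant: 200 μM PRPP plus 2.5 mM ATP are added to 2 nM NAMPT and 2 nM probe, with a 16-hour incubation ahead of TR-FRET reading.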
For orientation: TR-FRET usually uses a lanthanide donor and a delayed reading to cut background.

Test [1] deals with NAMPT (human, recombinant, C-terminally His-tagged) (Homo sapiens, UniProt P43490). The test is described as follows: Time-Resolved Fluorescence Resonance Energy Transfer (TR-FRET) Binding Assay of NAMPT. Particulars: without substrates; 6.8 nM NAMPT, 200 nM probe, 3 hours equilibration. Summed up: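 In a displacement format, the nicotinamide-site tracer at 200 nM competed with test compound for 6.8 nM enzyme detected via 1 nM terbium anti-His antibody; incubation lasted 3 hours at room temperature in 50 mM HEPES pH 7.5, 100 mM NaCl. Normalized 520/495 nm emission ratios gave IC50 values.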
NAMPT (human, recombinant, C-terminally His-tagged), sequence (P43490 whole entry): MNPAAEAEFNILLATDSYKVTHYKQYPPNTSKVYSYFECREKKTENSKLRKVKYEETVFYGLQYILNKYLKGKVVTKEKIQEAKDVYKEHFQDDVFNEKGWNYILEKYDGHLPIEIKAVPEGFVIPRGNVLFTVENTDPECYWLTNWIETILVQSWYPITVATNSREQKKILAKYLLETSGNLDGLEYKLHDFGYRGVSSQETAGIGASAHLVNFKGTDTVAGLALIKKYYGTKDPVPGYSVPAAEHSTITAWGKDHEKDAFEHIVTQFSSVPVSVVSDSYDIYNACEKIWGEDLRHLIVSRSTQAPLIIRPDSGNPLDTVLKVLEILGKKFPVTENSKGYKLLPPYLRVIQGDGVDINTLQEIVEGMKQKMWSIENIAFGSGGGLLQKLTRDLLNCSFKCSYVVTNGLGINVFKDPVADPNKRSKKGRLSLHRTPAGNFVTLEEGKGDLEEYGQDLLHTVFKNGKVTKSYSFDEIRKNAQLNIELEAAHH

NAMPT, sequence (P43490 whole entry): as above

A word on the IC50: it is the concentration needed to halve the response being measured. Turning to `O=C(NCc1ccn2ccnc2c1)c1cnc(N2C(=O)OC[C@@H]2COCc2ccccc2)s1` [Example 188, 2-{(4S)-4-[(benzyloxy)methyl]-2-oxo-1,3-oxazolidin-3-yl}-N-(imidazo[1,2-a]pyridin-7-ylmethyl)-1,3-thiazole-5-carboxamide], the half-inhibitory concentration (IC50) is 6.29 µM in the test with PC3 cells, 0.00509 µM at NAMPT and greater than 10 µM in test [1].

Take `O=C(NCc1ccn2ccnc2c1)c1cnc(C2=CCN(C(=O)C3CCOCC3)CC2)s1` [Example 319, N-(imidazo[1,2-a]pyridin-7-ylmethyl)-2-[1-(tetrahydro-2H-pyran-4-ylcarbonyl)-1,2,3,6-tetrahydropyridin-4-yl]-1,3-thiazole-5-carboxamide]: the half-maximal inhibitory concentration (IC50) amounted to 0.0293 µM in the test with PC3 cells, 0.000192 µM at NAMPT and 0.466 µM in test [1].

Take `O=C(NCc1ccn2ccnc2c1)c1ccc(C2CCN(C(=O)c3cscn3)C2)cc1` (stereo not drawn) [Example 588, N-(imidazo[1,2-a]pyridin-7-ylmethyl)-4-[1-(1,3-thiazol-4-ylcarbonyl)pyrrolidin-3-yl]benzamide]: the results for the 50% inhibitory concentration (IC50) (with PC3 cells; on NAMPT; in test [1]) were 0.181 µM, 0.000623 µM and 0.684 µM, respectively.

Consider `O=C(NCc1ccn2ccnc2c1)Nc1ccc(C2CCN(C(=O)C3COCCO3)CC2)cc1` (stereo not drawn) [Example 222, 1-{4-[1-(1,4-dioxan-2-ylcarbonyl)piperidin-4-yl]phenyl}-3-(imidazo[1,2-a]pyridin-7-ylmethyl)urea], for which the IC50 was 0.00408 µM in the test with PC3 cells, 0.000192 µM at NAMPT and 0.112 µM in test [1].

`O=C(NCCCCC1CCN(C(=O)C2CCOCC2)CC1)Nc1ccc2nccn2c1` [Example 69, 1-imidazo[1,2-a]pyridin-6-yl-3-{4-[1-(tetrahydro-2H-pyran-4-ylcarbonyl)piperidin-4-yl]butyl}urea]: the values for the IC50 (with PC3 cells; on NAMPT; in test [1]) were 0.0166 µM, 0.000268 µM and 0.676 µM, respectively.

On to `O=C(NCc1ccc2nccn2c1)c1ccc(-c2cnn(CC3CCCCO3)c2)s1` (stereo not drawn) [Example 186, N-(imidazo[1,2-a]pyridin-6-ylmethyl)-5-[1-(tetrahydro-2H-pyran-2-ylmethyl)-1H-pyrazol-4-yl]thiophene-2-carboxamide], for which the IC50 is 0.00236 µM with PC3 cells, 0.000347 µM at NAMPT and 0.0657 µM in test [1].

On to `CC(C)CCNC(=O)c1ccc(C(=O)NCc2ccc3nccn3c2)cc1` [Example 358, N-(imidazo[1,2-a]pyridin-6-ylmethyl)-N′-(3-methylbutyl)benzene-1,4-dicarboxamide], for which the IC50 was determined as 2.26 µM in the test with PC3 cells, 0.00219 µM on NAMPT and 1.84 µM in test [1].

On to `O=C(NCc1ccn2ccnc2c1)c1ccc(C2CCN(C(=O)c3ccccn3)C2)s1` (stereo not drawn) [Example 774, N-(imidazo[1,2-a]pyridin-7-ylmethyl)-5-[1-(pyridin-2-ylcarbonyl)pyrrolidin-3-yl]thiophene-2-carboxamide], for which the concentration for half-maximal inhibition (IC50) is 0.00707 µM with PC3 cells, 0.00046 µM on NAMPT and 0.103 µM in test [1].

Take `O=C(NCc1ccn2ccnc2c1)c1cnc(C2CCN(S(=O)(=O)c3ccccc3)C2)s1` (stereo not drawn) [Example 752, N-(imidazo[1,2-a]pyridin-7-ylmethyl)-2-[1-(phenylsulfonyl)pyrrolidin-3-yl]-1,3-thiazole-5-carboxamide]: the IC50 in the test with PC3 cells was found to be 6.66 µM; at NAMPT it was 0.00077 µM; in test [1], 5.19 µM.

With `CC1(Cn2cc(-c3ccc(C(=O)NCc4ccn5ccnc5c4)s3)cn2)CCN(C(=O)OC(C)(C)C)CC1` [Example 755, tert-butyl 4-[(4-{5-[(imidazo[1,2-a]pyridin-7-ylmethyl)carbamoyl]thiophen-2-yl]-1H-pyrazol-1-yl)methyl}-4-methylpiperidine-1-carboxylate], the half-inhibitory concentration (IC50) in the test on PC3 cells came out at 0.00249 µM; at NAMPT, 0.00057 µM; in test [1], 0.013 µM.

As to `O=C(NCc1ccc2nccn2c1)c1ccc(OC2CCN(C(=O)[C@@H]3CCCO3)CC2)cc1` [Example 164, N-(imidazo[1,2-a]pyridin-6-ylmethyl)-4-({1-[(2S)-tetrahydrofuran-2-ylcarbonyl]piperidin-4-yl}oxy)benzamide], the IC50 is 0.101 µM in the test with PC3 cells, 0.00346 µM on NAMPT and 2.46 µM in test [1].

`O=C(NCc1ccn2ccnc2c1)c1ccc(C2CCN(C(=O)C3CCCC3)CC2)cc1` [Example 515, 4-[1-(cyclopentylcarbonyl)piperidin-4-yl]-N-(imidazo[1,2-a]pyridin-7-ylmethyl)benzamide]: the IC50 is 0.0158 µM in the test on PC3 cells, 0.000268 µM on NAMPT and 0.18 µM in test [1].

Turning to `O=C(NCc1ccn2ccnc2c1)c1ccc(-c2cnn(CCN3CCOCC3)c2)s1` [Example 294, N-(imidazo[1,2-a]pyridin-7-ylmethyl)-5-{1-[2-(morpholin-4-yl)ethyl]-1H-pyrazol-4-yl}thiophene-2-carboxamide], the IC50 with PC3 cells turned out to be 0.00188 µM; on NAMPT, 0.000169 µM; in test [1], 0.0447 µM.

For the molecule `O=C(NCc1ccn2ccnc2c1)c1cnc(N(C[C@H]2CCCO2)C(=O)Cc2ccon2)s1` [Example 192, N-(imidazo[1,2-a]pyridin-7-ylmethyl)-2-{(1,2-oxazol-3-ylacetyl)[(2R)-tetrahydrofuran-2-ylmethyl]amino}-1,3-thiazole-5-carboxamide], the IC50 with PC3 cells stood at 0.00185 µM; on NAMPT it was 0.000242 µM; in test [1], 0.238 µM.

`CC(C)(O)C(=O)N1CCC(Oc2ccc(NC(=O)NCc3ccn4ccnc4c3)cc2)CC1` [Example 447, 1-(4-{[1-(2-hydroxy-2-methylpropanoyl)piperidin-4-yl]oxy}phenyl)-3-(imidazo[1,2-a]pyridin-7-ylmethyl)urea]: the IC50 is 0.0125 µM with PC3 cells, 0.000232 µM on NAMPT and 0.261 µM in test [1].

As for `Cn1cc(CC(=O)N(CC2CCCO2)c2ncc(C(=O)NCc3ccc4nccn4c3)s2)cn1` (stereo not drawn) [Example 183, N-(imidazo[1,2-a]pyridin-6-ylmethyl)-2-{[(1-methyl-1H-pyrazol-4-yl)acetyl](tetrahydrofuran-2-ylmethyl)amino}-1,3-thiazole-5-carboxamide], the IC50 with PC3 cells was found to be 0.063 µM; on NAMPT, 0.0018 µM; in test [1], 1.05 µM.

With `O=C(NCc1ccn2ccnc2c1)c1ccc(-c2cnn(CC3CCCO3)c2)s1` (stereo not drawn) [Example 248, N-(imidazo[1,2-a]pyridin-7-ylmethyl)-5-[1-(tetrahydrofuran-2-ylmethyl)-1H-pyrazol-4-yl]thiophene-2-carboxamide], the IC50 with PC3 cells was determined as 0.00242 µM; at NAMPT it was 0.000169 µM; in test [1], 0.0658 µM.

In the case of `O=C(Nc1ccc(C2=CCN(C(=O)C3COCCO3)CC2)cc1)Nc1ccc2nccn2c1` (stereo not drawn) [Example 35, 1-{4-[1-(1,4-dioxan-2-ylcarbonyl)-1,2,3,6-tetrahydropyridin-4-yl]phenyl}-3-imidazo[1,2-a]pyridin-6-ylurea], the results for the half-maximal inhibitory concentration (IC50) (with PC3 cells; at NAMPT; in test [1]) were 0.0586 µM, 0.000801 µM and 0.387 µM, respectively.

Consider `O=C(NCc1ccn2ccnc2c1)Nc1ccc(OC2CN(C(=O)[C@H]3CCCO3)C2)cc1` [Example 431, 1-(imidazo[1,2-a]pyridin-7-ylmethyl)-3-[4-({1-[(2R)-tetrahydrofuran-2-ylcarbonyl]azetidin-3-yl}oxy)phenyl]urea], for which the results for the 50% inhibitory concentration (IC50) (in the test with PC3 cells; at NAMPT; in test [1]) were 0.0719 µM, 0.000276 µM and 0.301 µM, respectively.
